Measurements: ChEMBL document CHEMBL5120866, “Design and Synthesis of Novel Celastrol Derivatives as Potential Anticancer Agents against Gastric Cancer Cells” (J Nat Prod, 2022)
Activity calls are given as the source filed them. The rule behind the calls is not given here.

Columns and labels:
[1] = test system: BGC-823; experiment: Induction of apoptosis in human BGC-823 cells assessed as early apoptotic cells at 0.15 uM incubated for 24 hrs by annexin-V-FITC and PI staining based flow cytometry analysis (reference value: 2.4%); assay type: functional
[2] = test system: HCT-116; experiment: Antiproliferative activity against human HCT-116 cells assessed as cell growth inhibition incubated for 48 hrs by MTT assay; assay type: functional, cell-based; conditions: HCT-116, 48 h
[3] = test system: HepG2; experiment: Antiproliferative activity against human HepG2 cells assessed as cell growth inhibition incubated for 48 hrs by MTT assay; assay type: functional, cell-based; conditions: HepG2, 48 h
[4] = test system: MCF7; experiment: Antiproliferative activity against human MCF7 cells assessed as cell growth inhibition incubated for 48 hrs by MTT assay; assay type: functional, cell-based; conditions: MCF7, 48 h
[5] = test system: BGC-823; experiment: Induction of ROS generation in human BGC-823 cells assessed as increase in intracellular ROS level incubated for 24 hrs by DCFH-DA staining based fluorescence microscopic analysis; assay type: functional, cell-based; conditions: dose 0.3-0.6 µM, DDE = dose-dependent effect
[6] = test system: BGC-823; experiment: Induction of JNK phosphorylation in human BGC-823 cells at 0.15 to 0.6 uM incubated for 24 hrs by Western blot analysis; assay type: functional, cell-based; conditions: dose 0.15-0.6 µM
[7] = test system: BGC-823; experiment: Upregulation of Bcl-2 family proteins in human BGC-823 cells at 0.15 to 0.6 uM incubated for 24 hrs by Western blot analysis; assay type: functional, cell-based; conditions: dose 0.15-0.6 µM
[8] = test system: BGC-823; experiment: Induction of mitochondrial dysfunction in human BGC-823 cells assessed as […] by measuring reduction in red fluorescence at 0.15 to 0.6 uM incubated for 24 hrs by inverted fluorescent microscopic analysis; assay type: functional, cell-based; conditions: dose 0.15-0.6 µM
[9] = test system: BGC-823; experiment: Induction of mitochondrial dysfunction in human BGC-823 cells assessed as […] by measuring increase in green fluorescence at 0.15 to 0.6 uM incubated for 24 hrs by inverted fluorescent microscopic analysis; assay type: functional, cell-based; conditions: dose 0.15-0.6 µM
[10] = test system: BGC-823; experiment: Induction of apoptosis in human BGC-823 cells assessed as increase in cleaved PARP expression at 0.15 to 0.6 uM incubated for 24 hrs by Western blot analysis; assay type: functional, cell-based; conditions: dose 0.15-0.6 µM
[11] = test system: BGC-823; experiment: Induction of apoptosis in human BGC-823 cells assessed as increase in cleaved-caspase 9 expression at 0.15 to 0.6 uM incubated for 24 hrs by Western blot analysis; assay type: functional, cell-based; conditions: dose 0.15-0.6 µM
[12] = test system: BGC-823; experiment: Induction of apoptosis in human BGC-823 cells assessed as viable cells at 0.15 uM incubated for 24 hrs by annexin-V-FITC and PI staining based flow cytometry analysis (reference value: 96.3%); assay type: functional; conditions: read-out: Activity
[13] = test system: BGC-823; experiment: Induction of apoptosis in human BGC-823 cells assessed as early apoptotic cells at 0.3 uM incubated for 24 hrs by annexin-V-FITC and PI staining based flow cytometry analysis (reference value: 2.4%); assay type: functional
[14] = test system: BGC-823; experiment: Induction of apoptosis in human BGC-823 cells assessed as early apoptotic cells at 0.6 uM incubated for 24 hrs by annexin-V-FITC and PI staining based flow cytometry analysis (reference value: 2.4%); assay type: functional
[15] = test system: BGC-823; experiment: Induction of apoptosis in human BGC-823 cells assessed as late apoptotic cells at 0.15 uM incubated for 24 hrs by annexin-V-FITC and PI staining based flow cytometry analysis (reference value: 0.6%); assay type: functional
[16] = test system: BGC-823; experiment: Induction of apoptosis in human BGC-823 cells assessed as late apoptotic cells at 0.3 uM incubated for 24 hrs by annexin-V-FITC and PI staining based flow cytometry analysis (reference value: 0.6%); assay type: functional
[17] = test system: BGC-823; experiment: Induction of apoptosis in human BGC-823 cells assessed as late apoptotic cells at 0.6 uM incubated for 24 hrs by annexin-V-FITC and PI staining based flow cytometry analysis (reference value: 0.6%); assay type: functional
[18] = test system: BGC-823; experiment: Induction of apoptosis in human BGC-823 cells assessed as necrotic cells at 0.15 uM incubated for 24 hrs by annexin-V-FITC and PI staining based flow cytometry analysis (reference value: 0.6%); assay type: functional
[19] = test system: BGC-823; experiment: Induction of apoptosis in human BGC-823 cells assessed as reduction in total number of cells at 0.15 to 0.6 uM incubated for 24 hrs by Hoechst 33342 staining based flourescence microscopy method; assay type: functional, cell-based; conditions: dose 0.15-0.6 µM
[20] = test system: BGC-823; experiment: Induction of apoptosis in human BGC-823 cells assessed as increase in number of apoptotic cells at 0.15 to 0.6 uM incubated for 24 hrs by Hoechst 33342 staining based flourescence microscopy method; assay type: functional, cell-based; conditions: dose 0.15-0.6 µM
[21] = test system: BGC-823; experiment: Downregulation of Cdc2 protein expression in human BGC-823 cells at 0.15 to 0.6 uM incubated for 24 hrs by Western blot analysis; assay type: functional, cell-based; conditions: dose 0.15-0.6 µM
[22] = test system: BGC-823; experiment: Induction of cell cycle arrest in human BGC-823 cells assessed as accumulation of cells at G0/G1 phase at 0.15 uM incubated for 24 hrs by PI staining based flow cytometry method (reference value: 50.66%); assay type: functional
[23] = test system: BGC-823; experiment: Induction of cell cycle arrest in human BGC-823 cells assessed as accumulation of cells at G0/G1 phase at 0.6 uM incubated for 24 hrs by PI staining based flow cytometry method (reference value: 50.66%); assay type: functional
[24] = test system: BGC-823; experiment: Induction of cell cycle arrest in human BGC-823 cells assessed as accumulation of cells at S phase at 0.15 uM incubated for 24 hrs by PI staining based flow cytometry method (reference value: 26.01%); assay type: functional
[25] = test system: BGC-823; experiment: Induction of cell cycle arrest in human BGC-823 cells assessed as accumulation of cells at S phase at 0.3 uM incubated for 24 hrs by PI staining based flow cytometry method (reference value: 26.01%); assay type: functional
[26] = test system: BGC-823; experiment: Induction of cell cycle arrest in human BGC-823 cells assessed as accumulation of cells at S phase at 0.6 uM incubated for 24 hrs by PI staining based flow cytometry method (reference value: 26.01%); assay type: functional
[27] = test system: BGC-823; experiment: Induction of cell cycle arrest in human BGC-823 cells assessed as accumulation of cells at G2/M phase at 0.15 uM incubated for 24 hrs by PI staining based flow cytometry method (reference value: 22.86%); assay type: functional
[28] = test system: BGC-823; experiment: Antitumor activity against human BGC-823 cells xenografted in athymic BALB/c nude mouse assessed as tumor growth inhibition rate at 1.5 mg/kg, ip measured every 2 days for 21 days by curson caliper method relative to control; assay type: functional; conditions: BGC-823, 504 h, time 21 day, read-out: TGI
[29] = test system: BGC-823; experiment: Antitumor activity against human BGC-823 cells xenografted in athymic BALB/c nude mouse assessed increase in ROS level in tumor tissue by measuring increase in red fluorescence at 1.5 mg/kg, ip measured after 21 days by DHE staining based fluorescence microscopic analysis; assay type: functional, organism-based; conditions: time 21.0 day
[30] = Toxicity in athymic BALB/c nude mouse assessed as effect on kidney at 1.5 mg/kg, ip measured after 21 days by H and E staining based histopathological analysis; assay type: organism-based; conditions: in vivo, 504 h, time 21 day
[31] = test system: BGC-823; experiment: Antitumor activity against human BGC-823 cells xenografted in athymic BALB/c nude mouse assessed as reduction in mitosis at 1.5 mg/kg, ip measured after 21 days by H and E staining based analysis; assay type: functional, organism-based; conditions: time 21.0 day
[32] = test system: BGC-823; experiment: Antiproliferative activity against human BGC-823 cells assessed as cell growth inhibition at 0.5 uM incubated for 48 hrs by MTT assay relative to control; assay type: functional

Question: For CCOC(=O)c1cnn(CCCOC(=O)[C@]2(C)CC[C@]3(C)CC[C@]4(C)C5=CC=C6C(=CC(=O)C(O)=C6C)[C@]5(C)CC[C@@]4(C)[C@@H]3C2)c1, which Activity [1] is on record?
Answer: 4.4%

Question: What about the IC50 [2] of the same compound?
Answer: 410 nM

Question: And the IC50 [3]?
Answer: 350 nM

Question: And the IC50 [4]?
Answer: 390 nM

Question: What about the Activity [5] of the same compound?
Answer: Dde

Question: What about the Activity [6] of the same compound?
Answer: Active

Question: And the Activity [7]?
Answer: Active

Question: What about the Activity [8] of the same compound?
Answer: Active

Question: And the Activity [9]?
Answer: Active

Question: What about the Activity [10] of the same compound?
Answer: Active

Question: What about the Activity [11] of the same compound?
Answer: Active

Question: What about the viability at 0.15 µM [12] of the same compound?
Answer: 94.9%

Question: And the Activity [13]?
Answer: 16.5%

Question: What about the Activity [14] of the same compound?
Answer: 26%

Question: What about the Activity [15] of the same compound?
Answer: 0.5%

Question: What about the Activity [16] of the same compound?
Answer: 4.8%

Question: And the Activity [17]?
Answer: 21.7%

Question: What about the Activity [18] of the same compound?
Answer: 0.2%

Question: What about the Activity [19] of the same compound?
Answer: Active

Question: And the Activity [20]?
Answer: Active

Question: And the Activity [21]?
Answer: Active

Question: And the Activity [22]?
Answer: 48.17%

Question: What about the Activity [23] of the same compound?
Answer: 37.39%

Question: And the Activity [24]?
Answer: 26.07%

Question: What about the Activity [25] of the same compound?
Answer: 23.91%

Question: What about the Activity [26] of the same compound?
Answer: 24.75%

Question: And the Activity [27]?
Answer: 23.89%

Question: What about the inhibition in vivo at 1.5 mg/kg [28] of the same compound?
Answer: 89.8%

Question: What about the Activity [29] of the same compound?
Answer: Active

Question: What about the Activity [30] of the same compound?
Answer: Non-Toxic

Question: What about the Activity [31] of the same compound?
Answer: Active

Question: And the inhibition at 0.5 µM [32]?
Answer: > 50%
